Assay results published in PubChem BioAssay (NCI).
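Following 48 hours of exposure in 96-well plates, responses at five concentrations were used to interpolate endpoints linearly. GI50: concentration for 50% inhibition of growth. TGI is the concentration that stops growth completely.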

Legend:
Test in all cases: inhibition of tumour cell growth, NCI panel, 48 h
MCF7 breast = system: MCF7 breast
K-562 leukemia = system: K-562 leukemia
SNB-75 CNS = system: SNB-75 CNS
A498 renal = system: A498 renal
A549 NSCLC = system: A549 NSCLC
SK-MEL-2 melanoma = system: SK-MEL-2 melanoma
COLO 205 colon = system: COLO 205 colon
HL-60(TB) leukemia = system: HL-60(TB) leukemia
RXF 393 renal = system: RXF 393 renal
HT29 colon = system: HT29 colon
CCRF-CEM leukemia = system: CCRF-CEM leukemia
SR leukemia = system: SR leukemia
OVCAR-4 ovarian = system: OVCAR-4 ovarian
SK-OV-3 ovarian = system: SK-OV-3 ovarian
RPMI-8226 leukemia = system: RPMI-8226 leukemia
HS 578T breast = system: HS 578T breast
OVCAR-8 ovarian = system: OVCAR-8 ovarian

**Q.** `C[C@H](c1ccc(Cl)cc1[N+](=O)[O-])N1C(=O)c2cc(I)ccc2N=C(OCCCN2CCN(C)CC2)[C@@H]1c1ccc(Cl)cc1` was tested. Which GI50 (MCF7 breast) did it give?
**A.** 1640 nM

**Q.** What about the TGI (MCF7 breast) of the same molecule?
**A.** 3260 nM

**Q.** What about the GI50 (K-562 leukemia) of the same molecule?
**A.** 1810 nM

**Q.** And the TGI (K-562 leukemia)?
**A.** 4030 nM

**Q.** What about the GI50 (SNB-75 CNS) of the same molecule?
**A.** 1710 nM

**Q.** What about the TGI (SNB-75 CNS) of the same molecule?
**A.** 4270 nM

**Q.** And the GI50 (A498 renal)?
**A.** 2080 nM

**Q.** And the TGI (A498 renal)?
**A.** 5420 nM

**Q.** And the GI50 (A549 NSCLC)?
**A.** 1570 nM

**Q.** And the TGI (A549 NSCLC)?
**A.** 3140 nM

**Q.** And the GI50 (SK-MEL-2 melanoma)?
**A.** 2110 nM

**Q.** And the TGI (SK-MEL-2 melanoma)?
**A.** 4050 nM

**Q.** And the GI50 (COLO 205 colon)?
**A.** 1690 nM

**Q.** What about the TGI (COLO 205 colon) of the same molecule?
**A.** 3270 nM

**Q.** And the GI50 (HL-60(TB) leukemia)?
**A.** 2440 nM

**Q.** And the TGI (HL-60(TB) leukemia)?
**A.** 4410 nM

**Q.** And the GI50 (RXF 393 renal)?
**A.** 1730 nM

**Q.** What about the TGI (RXF 393 renal) of the same molecule?
**A.** 3250 nM

**Q.** What about the GI50 (HT29 colon) of the same molecule?
**A.** 1910 nM

**Q.** And the TGI (HT29 colon)?
**A.** 3490 nM

**Q.** What about the GI50 (CCRF-CEM leukemia) of the same molecule?
**A.** 2180 nM

**Q.** What about the TGI (CCRF-CEM leukemia) of the same molecule?
**A.** 5410 nM

**Q.** And the GI50 (SR leukemia)?
**A.** 1650 nM

**Q.** What about the TGI (SR leukemia) of the same molecule?
**A.** 3880 nM

**Q.** And the GI50 (OVCAR-4 ovarian)?
**A.** 1600 nM

**Q.** What about the TGI (OVCAR-4 ovarian) of the same molecule?
**A.** 3150 nM

**Q.** And the GI50 (SK-OV-3 ovarian)?
**A.** 1790 nM

**Q.** What about the TGI (SK-OV-3 ovarian) of the same molecule?
**A.** 3240 nM

**Q.** What about the GI50 (RPMI-8226 leukemia) of the same molecule?
**A.** 2330 nM

**Q.** What about the TGI (RPMI-8226 leukemia) of the same molecule?
**A.** 6500 nM

**Q.** What about the GI50 (HS 578T breast) of the same molecule?
**A.** 2020 nM

**Q.** What about the TGI (HS 578T breast) of the same molecule?
**A.** 6470 nM

**Q.** And the GI50 (OVCAR-8 ovarian)?
**A.** 1610 nM

**Q.** What about the TGI (OVCAR-8 ovarian) of the same molecule?
**A.** 3400 nM
